From the OligoGym collection
Where “and” joins values, the source holds several entries; their conditions need not be identical. Identical values can stand only once. After the bases stand the sugars from the 5' end (letter, count) and the backbone: PS all phosphorothioate, else s phosphorothioate and o phosphodiester by linkage. Methylation of C is not given here. e = 2'-O-(2-methoxyethyl) (MOE); k = constrained ethyl (cEt); d = 2'-deoxy (DNA)

Molecular target: IRF4
Conditions: ASO

Sequence	target mRNA inhibition (MM.1R, 1 µM)	target mRNA inhibition (SK-MEL-28, 4 µM)	other results
GTTCAAGACAAGGGTT (sugars k3 d10 k3, PS)	15%		
TTGCCTTCGCTCACTC (sugars k3 d10 k3, PS)		22%	
CCTGGTCCAGGTTGCT (sugars k3 d10 k3, PS)		26%	
CAGGAGCGCGGAGGGC (sugars k3 d10 k3, PS)		11%	
CCTCAGTTTGTGAAGC (sugars k2 d9 e3 k2, PS)	33%		
GATTATATACTGGTTG (sugars kdddddddddkekeke, PS)	12%		
AGGTCTGAGTTGTACA (sugars k3 d10 k3, PS)	55% and 45%		
CAAGACAAGGGTTTGA (sugars k3 d10 k3, PS)	-3%		
AGTTGTCTGGCTAGCA (sugars k3 d10 k3, PS)		80%	
GCTATCAGGATCTCAA (sugars k3 d10 k3, PS)		38%	
CCCCTCTCCAGGTGGC (sugars k3 d10 k3, PS)		13%	
CTGGACAGCCAAACAA (sugars k3 d10 k3, PS)		21%	
AGCCCCTCAGGAAATG (sugars k3 d10 k3, PS)		24%	
GGACTAAGGACAGCTG (sugars k3 d10 k3, PS)	13%		
AGTGAGAAAACCCCCC (sugars k3 d10 k3, PS)	8%		
TCACCTGAAGGATTTG (sugars k3 d10 k3, PS)		25%	
CCGCCCGCTCTGCTCT (sugars k3 d10 k3, PS)		54%	
GGAGACACATACATTT (sugars k3 d10 k3, PS)		22%	
CAGATAGTTAAGTACT (sugars k3 d10 k3, PS)		44%	
GGTCAGAATCTTGAAA (sugars k3 d10 k3, PS)		9%	
GGGAGAGCGGAGGCGG (sugars k3 d10 k3, PS)		22%	
TACTGCTTGAGGTTTT (sugars k2 d9 e3 k2, PS)	10%		
AATACGACAACTTTCC (sugars k3 d10 k3, PS)		50%	
CCGGGTTCCTCCACCC (sugars k3 d10 k3, PS)		9%	
CCAATTTATGCCATGG (sugars k3 d10 k3, PS)		12%	
TTAGACTGACAGCCGA (sugars k3 d10 k3, PS)		53%	
AGCCAGCCAGAGGTTC (sugars k3 d10 k3, PS)		30%	

Sequence	target mRNA inhibition (MM.1R, 1 µM)	target mRNA inhibition (SK-MEL-28, 4 µM)	other results
CTCCACAGCAAGGCCT (sugars k3 d10 k3, PS)		51%	
CTGCAGTTCACGAAAC (sugars k3 d10 k3, PS)		38%	
CTCTATAGTGTTCCAG (sugars kkdddddddddekeke, PS)	43%		
TGTGTATTACTCTTAG (sugars kkddddddddddkeke, PS)	51% and 39%		
TTCCAACCTTTATGAT (sugars k3 d10 k3, PS)		7%	
TGGTTGGCTGGTCTTT (sugars k2 d9 e3 k2, PS)	40%		
GAACACTTTGAGGTGA (sugars k3 d10 k3, PS)		14%	
CAATGATGGCAGTCTA (sugars k3 d10 k3, PS)		40%	
CTTCAGCAAAGAGGGT (sugars k3 d10 k3, PS)		59%	
CCAAGAGGTGCGAGTA (sugars k3 d10 k3, PS)		33%	
CTTGATAAAGGCTGAA (sugars kddddddddddkekek, PS)	17%		
AGTTTACACTGGATCT (sugars k3 d10 k3, PS)		70% and 74%	
CACGAGGTTGCCGAGA (sugars k3 d10 k3, PS)	48%	64%	target mRNA inhibition (MM.1R, 0.0625 µM): -3%; target mRNA inhibition (MM.1R, 0.074 µM): 4%; target mRNA inhibition (MM.1R, 0.222 µM): 7%; target mRNA inhibition (MM.1R, 0.25 µM): 9%; target mRNA inhibition (MM.1R, 0.666 µM): 22%; target mRNA inhibition (MM.1R, 2 µM): 34%; target mRNA inhibition (MM.1R, 4 µM): 62%
GGACCACATCTAATCC (sugars k3 d10 k3, PS)	-12%		
TTCATGTAAAGTCTGC (sugars k3 d10 k3, PS)	57% and 55%		
CTATAGTGTTCCAGGA (sugars kddddddddddkekek, PS)	34%		
CGCATAGGTCCTTCAG (sugars k3 d10 k3, PS)	6%		
GCGGACGCACGGAGAG (sugars k3 d10 k3, PS)	-9%		
TTGATAAAGGCTGAAC (sugars k3 d10 k3, PS)		67%	
TAAAGGAGTGCAGGAG (sugars k3 d10 k3, PS)		-7%	
AGGAAGCCGTTCCTTT (sugars k3 d10 k3, PS)		42%	
AAGCTTGATAAAGGCT (sugars kddddddddddkekek, PS)	3%		
CTTGGTTCTCTATAGT (sugars k3 d10 k3, PS)	27%		
TCTATAAGATGTATAC (sugars k3 d10 k3, PS)		26%	
GTCCAGCTGGCTCCGC (sugars k3 d10 k3, PS)		53%	
AGACAAGTGCTAGGAT (sugars k3 d10 k3, PS)		56%	
GTGGAAACGAGAACGC (sugars k3 d10 k3, PS)		3%	
